# Assays:
# Assay in all cases: ≥ marks a high value that may be exact or a test limit, other limits are often not marked, values filed in µg/mL are converted to µM
# [1] = system: Enterococcus faecium mic80
# [2] = system: Enterobacter cloacae 218R
# [3] = system: Pseudomonas aeruginosa 198
# [4] = system: Candida albicans ATCC 64550
# Bacillus subtilis C626 = system: Bacillus subtilis C626
# [5] = system: Acinetobacter baumannii ATCC 17978
# [6] = system: Pseudomonas aeruginosa H1001
# Pseudomonas aeruginosa 9 = system: Pseudomonas aeruginosa 9
# [7] = system: Enterococcus faecium t62764
# [8] = system: Klebsiella pneumoniae ESBL 63575
# [9] = system: Pseudomonas aeruginosa H1027
# [10] = system: Klebsiella pneumoniae ESBL 61962
# [11] = system: Pseudomonas aeruginosa LES400
# Escherichia coli O157:H7 = system: Escherichia coli O157:H7
# [12] = system: Escherichia coli ESBL 63103
# [13] = system: Stenotrophomonas maltophilia ATCC 13637
# [14] = system: Enterococcus faecalis f43559
# [15] = system: Staphylococcus aureus C622
# [16] = system: Pseudomonas aeruginosa PAO1 H103
# [17] = system: Pseudomonas aeruginosa 213
# [18] = system: Staphylococcus aureus ATCC 25923
# [19] = system: Staphylococcus aureus C623
# [20] = system: Enterococcus faecalis ATCC 29212
# [21] = system: Escherichia coli ESBL 64771
# [22] = system: Pseudomonas aeruginosa H1030
# [23] = system: Enterococcus faecalis W61950
compound,measurement,setting,value
CC[C@H](C)[C@H](NC(=O)[C@H](Cc1c[nH]c2ccccc12)NC(=O)[C@H](CCCCN)NC(=O)[C@H](Cc1c[nH]c2ccccc12)NC(=O)[C@H](Cc1c[nH]c2ccccc12)NC(=O)[C@H](CCCNC(=N)N)NC(=O)[C@@H](N)CCCCN)C(=O)N[C@@H](CCCNC(=N)N)C(=O)N[C@@H](Cc1c[nH]c2ccccc12)C(=O)O [KRWWKWIRW],MIC,[1],3.1 µM
same,MIC,[2],3 µM
same,MIC,[3],1.5 µM
same,MIC,[4],≥ 100 µM
same,MIC,Bacillus subtilis C626,20 µM
same,MIC,[5],5 µM
same,MIC,[6],0.554 µM
same,MIC,Pseudomonas aeruginosa 9,5.9 µM
same,MIC,[7],1.5 µM
same,MIC,[8],6.2 µM
same,MIC,[9],0.8 µM
same,MIC,[10],25 µM
same,MIC,[11],5.9 µM
same,MIC,Escherichia coli O157:H7,1.25 µM
same,MIC,[12],1.5 µM
same,MIC,[13],0.4 µM
same,MIC,[14],≥ 49 µM
same,MIC,[15],5 µM
same,MIC,[16],0.8 µM
same,MIC,[17],3 µM
same,MIC,[18],3 µM
same,MIC,[19],1.5 µM
same,MIC,[20],12 µM
same,MIC,[21],1.5 µM
same,MIC,[22],3 µM
same,MIC,[23],≥ 99 µM

# From DBAASP
